Laboratory results as given in patent publication US9693954B2, “Co-delivery of stimulatory and inhibitory factors to create temporally stable and spatially restricted zones” (President and Fellows of Harvard College, priority 2010, dated 2017).

What was measured:
[1] = tested on: TGF-β reporter line (MLEC p3TP Luc); assay: TGF-β reporter cell line luciferase activity; type: cell-based
Description: (§1) FIG. 22E is a schematic showing an experimental scheme to show the precise kinetics of growth factor exposure on luciferase activity in the reporter lines. Following seeding and serum starvation (reduces background), a specific inhibitor is added to create a uniform inhibitory field. Subsequently, for given amounts of time, the inhibitor is washed off, the growth factor (either TGF-β1 or BMP4) is added for specified time, and washed off followed by re-addition of the inhibitor. At 24 hours, cells are lysed and assayed for luciferase activity.
(§2) The reporter cell lines were seeded in these 5 layered systems and imaged for luciferase activity after 24 hours to confirm development of spatially distinct morphogens fields.

[2] = tested on: phospho-Smad2 in D1 (MSCs); assay: immunoblot / immunostaining for phospho-Smad2 (2/3) in D1 MSCs; type: cell-based
Description: (§3) Experiments were carried out with the following morphogens: TGF-β1 to drive dentin differentiation and BMP4 to drive bone differentiation. The scaffold devices were fabricated, loaded with morphogens (in this case, differentiation factors), and then seeded with stem cells, e.g., mesendymal stem cells, embryonic stem cells or induced pluripotent stem cells (iPS)). The loaded, seeded devices were cultured for 21 days with no additional factors present in the media. All factors came from within the scaffold from the point of seeding. Immunoblots were carried out to assess activation of the downstream Smad signaling pathways following treatment of D1s with these morphogens.

[3] = tested on: dermal human vascular endothelial cells (HMVECs); assay: in vitro sprouting assay (cell-seeded dextran beads in fibrin gel); type: cell-based; settings: HMVEC-coated beads in fibrin gel, 4 days, 10 ng/mL HGF in all media
Description: Briefly, dermal human vascular endothelial cells (HMVECs) were purchased from Lonza (CC-2543) and cultured to confluence at 37° C. and 5% CO2 in microvascular endothelial cell growth medium-2 (EGM-2MV) (Lonza) containing all supplements. Angiogenic activity of endothelial cells was assessed using a modification of a widely used in vitro sprouting assay (Nehls, V., and Drenckhahn, D. 1995 Microvasc Res 50, 311-322). Briefly, dextran beads microcarriers (Cytodex 3) with a dry weight of 50 mg were swollen in PBS and autoclaved. The microcarriers were washed in EGM-2MV medium and seeded with 3×10^6 HMVECs in a spinner flask. The microcarriers were stirred for 2 minutes out of 30 minutes for […] at 37° C. incubation. After 4 hours, the beads and cells mixture were continuously stirred and incubated for an additional 20 hours. The cell-coated beads were then seeded in fibrin gel in a 24-well-plate. The composition of the fibrin gel in each well was 0.682 mg fibrinogen (Sigma, T3879), 11.4 μg aprotinin (Sigma, A4529), 0.455 U thrombin (Sigma, T6884) in 393 μL of phosphate buffered saline (PBS) and 57 μL of EGM2-MV. Gels were incubated at 37° C. for 30 minutes and media of experimental conditions were placed on top of the gel. […] Media were changed every 24 hours and the cells were allowed to sprout from beads into surrounding gel over 4 days. […]

angiogenesis = settings: from previous studies; cited from earlier work
[4] = tested on: phospho-Smad1/5/8 in D1 (MSCs); assay: immunoblot for phospho-Smad1/5/8 in D1 MSCs; type: cell-based
Description: as §3

[5] = tested on: BMP4 reporter (C2C12 BRE Luc); assay: BMP4 reporter cell line luciferase activity; type: cell-based
Description: as §1, §2

[6] = inhibitor wash-off / re-addition scheme, lysis at 24 hours

TGF-β1: transforming growth factor-β1, morphogen used to drive dentin differentiation
luciferase activity with varying TGF-β1 concentration [1]: linear dose dependence
exposure time sufficient for maximal induction of luciferase activity [1, 6]: 5 to 15 min
phospho-Smad2 activation (immunoblot) [2]: dose-dependent activation
phospho-Smad2/3 immunostaining ([2]; following stimulation): nuclear localization of activated Smads

VEGF
angiogenic sprouting (number of sprouts per bead) [3]: induced angiogenic sprouting
minimum effective VEGF concentration in vivo to induce angiogenesis (angiogenesis): ~5 ng/mL

B1: BMP4: bone morphogenetic protein 4, morphogen used to drive bone differentiation (protein, UniProt P12644 293-408, looked up)
Bone morphogenetic protein 4: SPKHHSQRARKKNKNCRRHSLYVDFSDVGWNDWIVAPPGYQAFYCHGDCPFPLADHLNSTNHAIVQTLVNSVNSSIPKACCVPTELSAISMLYLDEYDKVVLKNYQEMVVEGCGCR
phospho-Smad1/5/8 activation (immunoblot) [4]: dose-dependent activation
luciferase activity with varying BMP4 concentration [5]: linear dose dependence
exposure time sufficient for maximal induction of luciferase activity [5, 6]: 5 to 15 min
